SMILES strings stand for the structures.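 Values below derive from 48-hour exposures of cells grown in 96-well plates, with endpoints linearly interpolated between the two concentrations bracketing the appropriate inhibition level. At the GI50, growth is halved.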 The source made the active and inactive calls. Cut-off read from the data, not from the text of the source: active = GI50 up to about 1.1 µM and inactive = higher.

These results are taken from ChEMBL document CHEMBL1201862, “PubChem BioAssay data set” (2004).

What all share (experiment): growth of human tumour cells (NCI), 48 h
Experiment [1] relates to LOX IMVI.
For experiment [2], the system named is SW-620.
For experiment [3], the system named is MOLT-4.
Experiment [4] concerns HT-29.
In experiment [5] the test system is SK-OV-3.
In experiment [6] the test system is EKVX.
Experiment [7] relates to HCT-116.
Experiment [8] concerns COLO 205.
Experiment [9] has as its system NCI-H522.
The test system of experiment [10] is RPMI-8226.
Experiment [11] concerns SF-295.
Experiment [12] has as its system SN12C.
Experiment [13] relates to NCI-H460.
Experiment [14] concerns SF-539.
Experiment [15] relates to A549.
In experiment [16] the test system is MDA-N.
In experiment [17] the test system is CAKI-1.
Experiment [18] deals with T47D.

For the molecule `Cc1ccc(/C=C2\CCCc3ccccc3C2=O)cc1`, the GI50 in experiment [1] is 14.9 µM (inactive); in experiment [2], 22.9 µM (inactive); in experiment [3], 17.7 µM (inactive); in experiment [4], 3.18 µM (inactive); in experiment [5], 13.2 µM (inactive); in [6], 12 µM (inactive). The GI50 in [7] was 13.7 µM (inactive); in experiment [8] it was 4.94 µM (inactive); in experiment [9] it was 6.25 µM (inactive); in [10] it was 16.3 µM (inactive); in experiment [11], 3.45 µM (inactive); in experiment [12] it was 11.7 µM (inactive). Besides, the GI50 was 7.23 µM (inactive) in experiment [13]; 13.8 µM (inactive) in experiment [14]; 5.86 µM (inactive) in experiment [15]; 1.86 µM (inactive) in experiment [16]; 27.2 µM (inactive) in experiment [17].

For `O=C1/C(=N\NC(=S)Nc2ccc(Cl)cc2)c2cc([N+](=O)[O-])ccc2N1CN1CCOCC1`, the GI50 in experiment [1] was 10.1 µM (inactive); in experiment [2], 4.37 µM (inactive); in experiment [3], 0.655 µM (active); in experiment [5], 12.6 µM (inactive); in experiment [7] it was 4.12 µM (inactive); in experiment [8] it was 13.2 µM (inactive). Moreover, the GI50 in [9] is 6.79 µM (inactive); in [11] it was 4.97 µM (inactive); in [18] it was 4.37 µM (inactive); in experiment [12], 4.12 µM (inactive); in [13], 7.78 µM (inactive); in experiment [14], 11.3 µM (inactive). The results for the GI50 in [15] and in experiment [17] were 8.22 µM (inactive) and 3.52 µM (inactive), respectively.

Turning to `CCOC(=O)C1(C(=O)OCC)C[C@H](C)[C@](C)(O)C1`, the GI50 in experiment [1], in experiment [2], in experiment [3], in experiment [4], in experiment [5] and in experiment [6] was > 100 µM (inactive) each time. In addition, the GI50 in experiment [7], in experiment [8], in experiment [9], in experiment [10], in experiment [11] and in experiment [12] was > 100 µM (inactive) each time. In addition, the GI50 in experiment [13], in experiment [14], in experiment [15], in experiment [16] and in experiment [17] was > 100 µM (inactive) in each case.

As to `CC(=O)OCC(OC(C)=O)C1C[C@H]2O[C@@H]3[C@H](C[C@H]2O1)O[C@@]1(C[C@@H]3C)C[C@H](C)[C@@H]2O[C@]3(C[C@@H]2O1)C[C@H]1O[C@H]2[C@H](C)[C@H]4OC(=O)CC5CC[C@H]6OC7[C@H]8O[C@]9(CC[C@H]%10CC(O)(CO)[C@H](CC[C@H]%11C[C@@H](C)C(O)(CO)C(C[C@@H]4O[C@H]2C[C@H]1O3)O%11)O%10)CC8O[C@@H]7[C@@H](O9)[C@H]6O5` (stereo partly specified), the GI50 in experiment [1] was 0.0146 µM (active); in experiment [2] it was 0.00492 µM (active); in experiment [3], 0.0064 µM (active); in experiment [5], 0.0284 µM (active); in experiment [6] it was 0.0234 µM (active); in experiment [7], 0.00438 µM (active). In addition, the GI50 was 0.00445 µM (active) in [8]; 0.000942 µM (active) in [9]; 0.00282 µM (active) in experiment [10]; 0.0043 µM (active) in experiment [11]; 0.0227 µM (active) in [12]; 0.00371 µM (active) in experiment [13]. The results for the GI50 in [15], in experiment [16] and in experiment [17] were 0.00643 µM (active), 0.00083 µM (active) and 0.0127 µM (active), respectively.

With `O=S1(=O)OC(c2ccc(O)cc2)(c2ccc(O)cc2)c2ccccc21` [PHENOLSULFONPHTHALEIN], the GI50 in [1], in [2], in experiment [3], in [4], in [5] and in experiment [6] was > 100 µM (inactive) in each case. In addition, the GI50 in experiment [7], in [8], in experiment [9], in [10], in experiment [11] and in [18] was > 100 µM (inactive) throughout. Moreover, the GI50 in experiment [12], in experiment [13], in experiment [14], in [15] and in [17] was > 100 µM (inactive) each time.

`Cc1cc2c(c(S(=O)(=O)c3ccc(Cl)cc3[N+](=O)[O-])c1)NCCC2`: the GI50 in [1] was 5.57 µM (inactive); in experiment [2] it was > 100 µM (inactive); in experiment [4] it was 66.1 µM (inactive); in [5], > 100 µM (inactive); in experiment [6] it was > 100 µM (inactive); in experiment [8], > 100 µM (inactive). For the same molecule, the GI50 in experiment [9] was 18.2 µM (inactive); in [10] it was 58.5 µM (inactive); in experiment [11], 53.2 µM (inactive); in experiment [18] it was 1.84 µM (inactive); in experiment [12], > 100 µM (inactive); in experiment [13] it was 74.1 µM (inactive). Moreover, the GI50 in experiment [14] is > 100 µM (inactive); in [15], 38.5 µM (inactive).

With `Cc1ccc(-c2nc3n(c2/C=N\N=C(N)N)CCS3)cc1`, the GI50 was 16.7 µM (inactive) in [1]; 15.7 µM (inactive) in [2]; 45.8 µM (inactive) in experiment [3]; 14 µM (inactive) in [4]; 15.3 µM (inactive) in [5]; 16 µM (inactive) in [6]. The GI50 in experiment [7] is 14.8 µM (inactive); in [8] it was 14.5 µM (inactive); in experiment [9], 2.79 µM (inactive); in experiment [10] it was 32.8 µM (inactive); in experiment [11], 12.2 µM (inactive); in [18] it was 13.2 µM (inactive). For the same molecule, the GI50 was 16.1 µM (inactive) in experiment [12]; 18 µM (inactive) in experiment [13]; 15.2 µM (inactive) in experiment [14]; 15.9 µM (inactive) in experiment [15]; 17.9 µM (inactive) in experiment [17].

As to `O=C(O)C1Cc2ccccc2OC1=O` (stereo unspecified), the GI50 in experiment [2], in experiment [3], in experiment [4], in experiment [5], in [6] and in experiment [7] was > 100 µM (inactive) throughout. For the same molecule, the GI50 in experiment [8], in experiment [9], in experiment [10], in experiment [11], in experiment [18] and in [12] was > 100 µM (inactive) in each case. In addition, the GI50 in experiment [13], in [14], in experiment [15] and in [17] was > 100 µM (inactive) each time.

As for `CC(C)=NN/C(=N\c1ccc(Cl)cc1)NS(=O)(=O)c1cc2ccccc2s1`, the GI50 in experiment [1] was 77.3 µM (inactive); in [2] it was > 100 µM (inactive); in experiment [3], 16.6 µM (inactive); in experiment [4], 63.1 µM (inactive); in experiment [6] it was 12 µM (inactive); in experiment [7], 40.4 µM (inactive). For the same molecule, the GI50 in [8] was 46.5 µM (inactive); in experiment [9] it was 38.5 µM (inactive); in experiment [10], 29 µM (inactive); in experiment [11], 57.5 µM (inactive); in experiment [18], 21.5 µM (inactive); in [12] it was 50.7 µM (inactive). Moreover, the values for the GI50 in experiment [13], in experiment [15] and in [17] were > 100 µM (inactive), 44 µM (inactive) and 97.9 µM (inactive), respectively.

On to `O=C1C(=C2SC(c3ccccc3)(c3ccccc3)c3ccccc32)C(=O)c2ccccc21`, for which the GI50 in [1], in experiment [2], in experiment [3], in [4], in experiment [5] and in experiment [6] was > 100 µM (inactive) in each case. Further, the GI50 in experiment [7], in experiment [8], in experiment [9], in [10], in experiment [11] and in [12] was > 100 µM (inactive) each time. Further, the GI50 in [13], in [14], in [15], in experiment [16] and in experiment [17] was > 100 µM (inactive) each time.

As for `O=C1CC(C(OCc2ccccc2)C(OCc2ccccc2)C(OCc2ccccc2)C(COCc2ccccc2)OCc2ccccc2)CC(=O)N1` (stereo unspecified), the GI50 is > 100 µM (inactive) in experiment [1]; > 100 µM (inactive) in experiment [2]; 59 µM (inactive) in experiment [3]; > 100 µM (inactive) in experiment [4]; > 100 µM (inactive) in [6]; > 100 µM (inactive) in experiment [10]. The GI50 in experiment [11], in experiment [12], in experiment [13], in experiment [15] and in experiment [16] was > 100 µM (inactive) in each case.

`CC(C)COC(c1ccc2c(c1)OCO2)C(C)Br` (stereo unspecified): the GI50 in experiment [1] is 17.4 µM (inactive); in experiment [2], 28.9 µM (inactive); in experiment [4] it was 18.9 µM (inactive); in experiment [5] it was 24.1 µM (inactive); in [6], 26.2 µM (inactive); in experiment [7], 17.2 µM (inactive). Also, the GI50 in experiment [8] was 22.6 µM (inactive); in experiment [9], 18.7 µM (inactive); in experiment [10], 21.6 µM (inactive); in experiment [11] it was 20 µM (inactive); in experiment [12] it was 20.7 µM (inactive); in [13], 20 µM (inactive). The GI50 is 23.3 µM (inactive) in [14], 29.1 µM (inactive) in experiment [15], 21.6 µM (inactive) in [16] and 30.3 µM (inactive) in experiment [17].
